Reference: PubChem BioAssay (NCI)
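Briefly, cells in 96-well plates were exposed to five compound concentrations for 48 h, and endpoints were estimated by linear interpolation. Abbreviation: GI50, concentration required for 50% inhibition of growth. The concentration for full growth arrest is given as TGI.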

How the values were obtained:
Assay in all cases: DTP human tumour cell line panel, 48 h
[1] = system: OVCAR-5 ovarian
[2] = system: K-562 leukemia
[3] = system: OVCAR-8 ovarian
[4] = system: SR leukemia
[5] = system: SK-MEL-28 melanoma
[6] = system: M14 melanoma
[7] = system: SK-MEL-5 melanoma
[8] = system: SK-OV-3 ovarian
[9] = system: SW-620 colon
[10] = system: RPMI-8226 leukemia
[11] = system: A549 NSCLC

Q: How did the TGI [1] turn out when `O=C(N/C(=C\c1ccccc1[N+](=O)[O-])c1nc2ccccc2[nH]1)c1ccccc1` was run?
A: > 100 µM

Q: And the TGI [2]?
A: > 100 µM

Q: And the TGI [3]?
A: > 100 µM

Q: What about the TGI [4] of the same compound?
A: > 100 µM

Q: What about the TGI [5] of the same compound?
A: > 100 µM

Q: What about the TGI [6] of the same compound?
A: > 100 µM

Q: What about the TGI [7] of the same compound?
A: > 100 µM

Q: And the TGI [8]?
A: > 100 µM

Q: What about the TGI [9] of the same compound?
A: > 100 µM

Q: `CC1SC(c2ccccc2)N(Nc2c3ccccc3nc3ccccc23)C1=O` (configuration not stated) was tested. Which TGI [1] did it give?
A: > 100 µM

Q: What about the TGI [2] of the same compound?
A: > 100 µM

Q: What about the TGI [3] of the same compound?
A: > 100 µM

Q: And the TGI [4]?
A: > 100 µM

Q: And the TGI [10]?
A: > 100 µM

Q: What about the TGI [5] of the same compound?
A: > 100 µM

Q: And the TGI [6]?
A: > 100 µM

Q: What about the TGI [11] of the same compound?
A: > 100 µM

Q: What about the TGI [7] of the same compound?
A: > 100 µM

Q: And the TGI [8]?
A: > 100 µM

Q: And the TGI [9]?
A: > 100 µM

Q: For `COc1ccc(-c2cc(-c3ccccc3)n(C3OCC(OC(C)=O)C(OC(C)=O)C3OC(C)=O)c(=S)c2C#N)cc1` (configuration not stated), which TGI [1] is on record?
A: > 100 µM

Q: And the TGI [2]?
A: > 100 µM

Q: And the TGI [3]?
A: > 100 µM

Q: What about the TGI [4] of the same compound?
A: > 100 µM

Q: And the TGI [10]?
A: > 100 µM

Q: What about the TGI [5] of the same compound?
A: > 100 µM

Q: And the TGI [6]?
A: > 100 µM

Q: What about the TGI [11] of the same compound?
A: > 100 µM

Q: And the TGI [7]?
A: > 100 µM

Q: What about the TGI [8] of the same compound?
A: > 100 µM

Q: What about the TGI [9] of the same compound?
A: > 100 µM

Q: For `COc1cc(-c2n/c(=C\c3c(O)[nH]c4ccc(Cl)cc34)cc3c2=Nc2ccccc2-3)cc(OC)c1OC`, which GI50 [1] is on record?
A: 5.15 µM

Q: What about the TGI [1] of the same compound?
A: 16.9 µM

Q: What about the GI50 [2] of the same compound?
A: 0.728 µM

Q: And the TGI [2]?
A: 10.1 µM

Q: What about the GI50 [4] of the same compound?
A: 0.445 µM

Q: What about the TGI [4] of the same compound?
A: 4.8 µM

Q: What about the GI50 [10] of the same compound?
A: 2.68 µM

Q: What about the TGI [10] of the same compound?
A: 19.7 µM

Q: What about the GI50 [5] of the same compound?
A: 2.04 µM

Q: And the TGI [5]?
A: 4.41 µM

Q: And the GI50 [6]?
A: 1.43 µM

Q: And the TGI [6]?
A: 3.02 µM

Q: What about the GI50 [7] of the same compound?
A: 1.83 µM

Q: What about the TGI [7] of the same compound?
A: 5.63 µM

Q: What about the GI50 [8] of the same compound?
A: 2.16 µM

Q: What about the TGI [8] of the same compound?
A: 4.79 µM

Q: And the GI50 [9]?
A: 0.366 µM

Q: What about the TGI [9] of the same compound?
A: 1.6 µM

Q: For `C=C(C)[C@@H]1CC[C@]2(C)CC[C@]3(C)[C@H](CC[C@@H]4[C@@]5(C)CC[C@H](OC(=O)c6ccccc6)C(C)(C)[C@@H]5CC[C@]43C)[C@@H]12`, which TGI [1] is on record?
A: > 100 µM

Q: What about the TGI [2] of the same compound?
A: > 100 µM

Q: What about the TGI [3] of the same compound?
A: > 100 µM

Q: And the TGI [4]?
A: > 100 µM

Q: What about the TGI [10] of the same compound?
A: > 100 µM

Q: And the TGI [5]?
A: > 100 µM

Q: And the TGI [6]?
A: > 100 µM

Q: And the TGI [11]?
A: > 100 µM

Q: And the TGI [7]?
A: > 100 µM

Q: What about the TGI [8] of the same compound?
A: > 100 µM

Q: What about the TGI [9] of the same compound?
A: > 100 µM

Q: With `Nc1ccc2c(c1)C1=NNC(=O)CC1C2` (configuration not stated) as the compound, how does the TGI [1] read?
A: > 100 µM

Q: What about the TGI [2] of the same compound?
A: > 100 µM

Q: What about the TGI [3] of the same compound?
A: > 100 µM

Q: And the TGI [10]?
A: > 100 µM

Q: What about the TGI [5] of the same compound?
A: > 100 µM

Q: What about the TGI [11] of the same compound?
A: > 100 µM

Q: And the TGI [7]?
A: > 100 µM

Q: And the TGI [8]?
A: > 100 µM

Q: What about the TGI [9] of the same compound?
A: > 100 µM

Q: Which results are given for `CCn1nc(C)c2c1C(=O)NC(C)C(=O)N2` (configuration not stated)?
A: TGI [1]: > 100 µM; TGI [3]: > 100 µM; TGI [5]: > 100 µM; TGI [6]: > 100 µM; TGI [11]: > 100 µM; TGI [7]: > 100 µM; TGI [8]: > 100 µM; TGI [9]: > 100 µM

Q: With `COc1ccc(NS(=O)c2ccc(-c3ccccc3)cc2)cc1` (configuration not stated) as the compound, how does the TGI [1] read?
A: > 100 µM

Q: And the TGI [2]?
A: > 100 µM

Q: What about the TGI [3] of the same compound?
A: > 100 µM

Q: And the TGI [4]?
A: > 100 µM

Q: And the TGI [10]?
A: > 100 µM

Q: What about the TGI [5] of the same compound?
A: > 100 µM

Q: And the TGI [6]?
A: > 100 µM

Q: What about the TGI [11] of the same compound?
A: > 100 µM

Q: And the TGI [7]?
A: > 100 µM

Q: And the TGI [9]?
A: > 100 µM
